Results published in PubChem BioAssay AID2060489 (Molecular Pharmacology Branch, DTP, NCI, 2025).

Test system: 922993-354-T-J3-PDC complex spheroids, viability
Assay: Anticancer human tumor 922993-354-T-J3-PDC patient-derived endometrial carcinoma cell line growth inhibition [GQUAD]
Conditions: for IC50: curve of first compound; for viability, T/C: stronger effect = lower value
How it was run: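 Tumor cells were grown as complex spheroids with HUVEC endothelial cells and mesenchymal stem cells as stroma. G-quadruplex stabilizers were combined with targeted agents over half-log dilutions from near the clinical Cmax, or from 10 microM.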

[1] = second compound 0.0316 µM, first compound 0.0316 µM
[2] = second compound 0.0316 µM, first compound 0.1 µM
[3] = second compound 0.0316 µM, first compound 0.316 µM
[4] = second compound 0.0316 µM, first compound 1 µM
[5] = second compound 0.0316 µM, first compound 3.16 µM
[6] = second compound 0.0316 µM, first compound 10 µM
[7] = second compound 0.1 µM, first compound 0.0316 µM
[8] = second compound 0.1 µM, first compound 0.1 µM
[9] = second compound 0.1 µM, first compound 0.316 µM
[10] = second compound 0.1 µM, first compound 1 µM
[11] = second compound 0.1 µM, first compound 3.16 µM
[12] = second compound 0.1 µM, first compound 10 µM
[13] = second compound 0.316 µM, first compound 0.0316 µM
[14] = second compound 0.316 µM, first compound 0.1 µM
[15] = second compound 0.316 µM, first compound 0.316 µM
[16] = second compound 0.316 µM, first compound 1 µM
[17] = second compound 0.316 µM, first compound 3.16 µM
[18] = second compound 0.316 µM, first compound 10 µM
[19] = second compound 1 µM, first compound 0.0316 µM
[20] = second compound 1 µM, first compound 0.1 µM
[21] = second compound 1 µM, first compound 0.316 µM
[22] = second compound 1 µM, first compound 1 µM
[23] = second compound 1 µM, first compound 3.16 µM
[24] = second compound 1 µM, first compound 10 µM
[25] = second compound 3.16 µM, first compound 0.0316 µM
[26] = second compound 3.16 µM, first compound 0.1 µM
[27] = second compound 3.16 µM, first compound 0.316 µM
[28] = second compound 3.16 µM, first compound 1 µM
[29] = second compound 3.16 µM, first compound 3.16 µM
[30] = second compound 3.16 µM, first compound 10 µM
[31] = second compound 10 µM, first compound 0.0316 µM
[32] = second compound 10 µM, first compound 0.1 µM
[33] = second compound 10 µM, first compound 0.316 µM
[34] = second compound 10 µM, first compound 1 µM
[35] = second compound 10 µM, first compound 3.16 µM
[36] = second compound 10 µM, first compound 10 µM
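Note: spheroids exposed to compounds for seven days.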
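Throughout, for viability, T/C: 100% = DMSO vehicle control viability.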

CCCS(=O)(=O)Nc1ccc(F)c(C(=O)c2c[nH]c3ncc(-c4ccc(Cl)cc4)cc23)c1F + CN(C)c1ccc(Nc2c3ccc(NC(=O)CCN4CCCC4)cc3nc3cc(NC(=O)CCN4CCCC4)ccc23)cc1
IC50 (second compound 0.0316 µM): > 10000 nM
IC50 (second compound 0.1 µM): 8450 nM
IC50 (second compound 0.316 µM): > 10000 nM
IC50 (second compound 1 µM): > 10000 nM
IC50 (second compound 3.16 µM): > 10000 nM
IC50 (second compound 10 µM): > 10000 nM
viability, T/C [1]: 91.6%
viability, T/C [2]: 94.2%
viability, T/C [3]: 103%
viability, T/C [4]: 66.5%
viability, T/C [5]: 72.2%
viability, T/C [6]: 60.6%
viability, T/C [7]: 78.2%
viability, T/C [8]: 83.9%
viability, T/C [9]: 95%
viability, T/C [10]: 80.3%
viability, T/C [11]: 68.1%
viability, T/C [12]: 46.9%
viability, T/C [13]: 105%
viability, T/C [14]: 78.5%
viability, T/C [15]: 89.6%
viability, T/C [16]: 94.7%
viability, T/C [17]: 83.1%
viability, T/C [18]: 68.1%
viability, T/C [19]: 82.5%
viability, T/C [20]: 86%
viability, T/C [21]: 83.3%
viability, T/C [22]: 80.2%
viability, T/C [23]: 79.3%
viability, T/C [24]: 60.8%
viability, T/C [25]: 97.5%
viability, T/C [26]: 101%
viability, T/C [27]: 108%
viability, T/C [28]: 87.8%
viability, T/C [29]: 84.9%
viability, T/C [30]: 53.8%
viability, T/C [31]: 103%
viability, T/C [32]: 111%
viability, T/C [33]: 131%
viability, T/C [34]: 122%
viability, T/C [35]: 115%
viability, T/C [36]: 78.4%

Cc1[nH]c2ccccc2c1CCNCc1ccc(/C=C/C(=O)NO)cc1 + CN(C)c1ccc(Nc2c3ccc(NC(=O)CCN4CCCC4)cc3nc3cc(NC(=O)CCN4CCCC4)ccc23)cc1
IC50 (second compound 0.0316 µM): > 316 nM
IC50 (second compound 0.1 µM): > 316 nM
IC50 (second compound 0.316 µM): > 316 nM
IC50 (second compound 1 µM): > 316 nM
IC50 (second compound 3.16 µM): > 316 nM
IC50 (second compound 10 µM): > 316 nM
viability, T/C (second compound 0.0316 µM, first compound 0.000999 µM): 104%
viability, T/C (second compound 0.0316 µM, first compound 0.00316 µM): 78.9%
viability, T/C (second compound 0.0316 µM, first compound 0.00999 µM): 91.6%
viability, T/C [1]: 67.8%
viability, T/C (second compound 0.0316 µM, first compound 0.0999 µM): 56.4%
viability, T/C [3]: 62.5%
viability, T/C (second compound 0.1 µM, first compound 0.000999 µM): 73.2%
viability, T/C (second compound 0.1 µM, first compound 0.00316 µM): 85.3%
viability, T/C (second compound 0.1 µM, first compound 0.00999 µM): 94.2%
viability, T/C [7]: 86.2%
viability, T/C (second compound 0.1 µM, first compound 0.0999 µM): 78.1%
viability, T/C [9]: 53.1%
viability, T/C (second compound 0.316 µM, first compound 0.000999 µM): 94.5%
viability, T/C (second compound 0.316 µM, first compound 0.00316 µM): 94.4%
viability, T/C (second compound 0.316 µM, first compound 0.00999 µM): 89.1%
viability, T/C [13]: 93%
viability, T/C (second compound 0.316 µM, first compound 0.0999 µM): 73.1%
viability, T/C [15]: 61.7%
viability, T/C (second compound 1 µM, first compound 0.000999 µM): 70.3%
viability, T/C (second compound 1 µM, first compound 0.00316 µM): 95.9%
viability, T/C (second compound 1 µM, first compound 0.00999 µM): 101%
viability, T/C [19]: 76.1%
viability, T/C (second compound 1 µM, first compound 0.0999 µM): 97%
viability, T/C [21]: 59.5%
viability, T/C (second compound 3.16 µM, first compound 0.000999 µM): 101%
viability, T/C (second compound 3.16 µM, first compound 0.00316 µM): 81.4%
viability, T/C (second compound 3.16 µM, first compound 0.00999 µM): 94.8%
viability, T/C [25]: 82.3%
viability, T/C (second compound 3.16 µM, first compound 0.0999 µM): 78.7%
viability, T/C [27]: 57.4%
viability, T/C (second compound 10 µM, first compound 0.000999 µM): 121%
viability, T/C (second compound 10 µM, first compound 0.00316 µM): 118%
viability, T/C (second compound 10 µM, first compound 0.00999 µM): 106%
viability, T/C [31]: 112%
viability, T/C (second compound 10 µM, first compound 0.0999 µM): 110%
viability, T/C [33]: 61.3%

O=C(NO)c1cnc(N2CCN(S(=O)(=O)c3ccc4ccccc4c3)CC2)nc1 + CN(C)c1ccc(Nc2c3ccc(NC(=O)CCN4CCCC4)cc3nc3cc(NC(=O)CCN4CCCC4)ccc23)cc1
IC50 (second compound 0.0316 µM): 390 nM
IC50 (second compound 0.1 µM): 475 nM
IC50 (second compound 0.316 µM): 442 nM
IC50 (second compound 1 µM): 448 nM
IC50 (second compound 3.16 µM): 682 nM
IC50 (second compound 10 µM): 689 nM
viability, T/C [1]: 107%
viability, T/C [2]: 79.2%
viability, T/C [3]: 50%
viability, T/C [4]: 41.5%
viability, T/C [5]: 4.18%
viability, T/C [6]: 0.41%
viability, T/C [7]: 79.9%
viability, T/C [8]: 96.1%
viability, T/C [9]: 56.6%
viability, T/C [10]: 29.6%
viability, T/C [11]: 4.22%
viability, T/C [12]: 0.4%
viability, T/C [13]: 96.5%
viability, T/C [14]: 75%
viability, T/C [15]: 60.8%
viability, T/C [16]: 33.4%
viability, T/C [17]: 4.98%
viability, T/C [18]: 0.4%
viability, T/C [19]: 76.7%
viability, T/C [20]: 76.6%
viability, T/C [21]: 54.5%
viability, T/C [22]: 34.5%
viability, T/C [23]: 3.3%
viability, T/C [24]: 0.44%
viability, T/C [25]: 88.3%
viability, T/C [26]: 95.7%
viability, T/C [27]: 80.9%
viability, T/C [28]: 34.3%
viability, T/C [29]: 4.89%
viability, T/C [30]: 0.4%
viability, T/C [31]: 101%
viability, T/C [32]: 85.6%
viability, T/C [33]: 95.3%
viability, T/C [34]: 29%
viability, T/C [35]: 5.63%
viability, T/C [36]: 0.55%
